According to ChEMBL document CHEMBL2375251, “Anticancer activity of novel hybrid molecules containing 5-benzylidene thiazolidine-2,4-dione” (Eur J Med Chem, 2013):
The source made the active and inactive calls. The rule behind the calls is not given here.

Experiments:
[1] = test system: MOLT-3; assay: Induction of apoptosis in human MOLT3 cells assessed as caspase 3/7-mediated DEVD-pNA cleavage at 1 uM after 6 hrs by colorimetric assay relative to control; format: functional
[2] = test system: U-937; assay: Induction of apoptosis in human U937 cells assessed as caspase 3/7-mediated DEVD-pNA cleavage at 1 uM after 6 hrs by colorimetric assay relative to control; format: functional
[3] = test system: HL-60; assay: Induction of apoptosis in human HL60 cells assessed as caspase 3/7-mediated DEVD-pNA cleavage at 1 uM after 6 hrs by colorimetric assay relative to control; format: functional
[4] = test system: MOLT-3; assay: Induction of apoptosis in human MOLT3 cells assessed as caspase9-mediated LEHD-pNA cleavage at 1 uM after 6 hrs by colorimetric assay; format: functional, cell-based
[5] = test system: U-937; assay: Induction of apoptosis in human U937 cells assessed as caspase9-mediated LEHD-pNA cleavage at 1 uM after 6 hrs by colorimetric assay; format: functional, cell-based
[6] = test system: HL-60; assay: Induction of apoptosis in human HL60 cells assessed as caspase9-mediated LEHD-pNA cleavage at 1 uM after 6 hrs by colorimetric assay; format: functional, cell-based
[7] = test system: MOLT-3; assay: Induction of apoptosis in human MOLT3 cells assessed as caspase 8-mediated IETD-pNA cleavage at 1 uM after 6 hrs by colorimetric assay; format: functional, cell-based
[8] = test system: U-937; assay: Induction of apoptosis in human U937 cells assessed as caspase 8-mediated IETD-pNA cleavage at 1 uM after 6 hrs by colorimetric assay; format: functional, cell-based
[9] = test system: MOLT-3; assay: Induction of apoptosis in human MOLT3 cells assessed as caspase 3/7-mediated DEVD-pNA cleavage at 1 uM after 6 hrs by colorimetric assay; format: functional, cell-based
[10] = test system: HL-60; assay: Induction of apoptosis in human HL60 cells assessed as caspase 8-mediated IETD-pNA cleavage at 1 uM after 6 hrs by colorimetric assay; format: functional, cell-based
[11] = test system: U-937; assay: Induction of apoptosis in human U937 cells assessed as caspase 3/7-mediated DEVD-pNA cleavage at 1 uM after 6 hrs by colorimetric assay; format: functional, cell-based
[12] = test system: HL-60; assay: Induction of apoptosis in human HL60 cells assessed as caspase 3/7-mediated DEVD-pNA cleavage at 1 uM after 6 hrs by colorimetric assay; format: functional, cell-based
[13] = test system: MOLT-3; assay: Induction of apoptosis in human MOLT3 cells assessed as cytochrome c release at 1 uM after 6 hrs by Western blot analysis; format: functional, cell-based
[14] = test system: U-937; assay: Induction of apoptosis in human U937 cells assessed as cytochrome c release at 1 uM after 6 hrs by Western blot analysis; format: functional, cell-based
[15] = test system: HL-60; assay: Induction of apoptosis in human HL60 cells assessed as cytochrome c release at 1 uM after 6 hrs by Western blot analysis; format: functional, cell-based
[16] = test system: MOLT-3; assay: Induction of apoptosis in human MOLT3 cells assessed as caspase-3-mediated PARP hydrolysis at 1 uM after 6 hrs by Western blot analysis; format: functional, cell-based
[17] = test system: U-937; assay: Induction of apoptosis in human U937 cells assessed as caspase-3-mediated PARP hydrolysis at 1 uM after 6 hrs by Western blot analysis; format: functional, cell-based
[18] = test system: HL-60; assay: Induction of apoptosis in human HL60 cells assessed as caspase-3-mediated PARP hydrolysis at 1 uM after 6 hrs by Western blot analysis; format: functional, cell-based
[19] = test system: MOLT-3; assay: Induction of apoptosis in human MOLT3 cells assessed as procaspase-9 activation at 1 uM after 6 hrs by Western blot analysis; format: functional, cell-based
[20] = test system: U-937; assay: Induction of apoptosis in human U937 cells assessed as procaspase-9 activation at 1 uM after 6 hrs by Western blot analysis; format: functional, cell-based
[21] = test system: HL-60; assay: Induction of apoptosis in human HL60 cells assessed as procaspase-9 activation at 1 uM after 6 hrs by Western blot analysis; format: functional, cell-based
[22] = test system: MOLT-3; assay: Induction of apoptosis in human MOLT3 cells assessed as procaspase-8 activation at 1 uM after 6 hrs by Western blot analysis; format: functional, cell-based
[23] = test system: U-937; assay: Induction of apoptosis in human U937 cells assessed as procaspase-8 activation at 1 uM after 6 hrs by Western blot analysis; format: functional, cell-based
[24] = test system: HL-60; assay: Induction of apoptosis in human HL60 cells assessed as procaspase-8 activation at 1 uM after 6 hrs by Western blot analysis; format: functional, cell-based
[25] = test system: MOLT-3; assay: Induction of apoptosis in human MOLT3 cells assessed as procaspase-7 activation at 1 uM after 6 hrs by Western blot analysis; format: functional, cell-based
[26] = test system: U-937; assay: Induction of apoptosis in human U937 cells assessed as procaspase-6 activation at 1 uM after 6 hrs by Western blot analysis; format: functional, cell-based
[27] = test system: HL-60; assay: Induction of apoptosis in human HL60 cells assessed as procaspase-6 activation at 1 uM after 6 hrs by Western blot analysis; format: functional, cell-based
[28] = test system: MOLT-3; assay: Induction of apoptosis in human MOLT3 cells assessed as procaspase-3 activation at 1 uM after 6 hrs by Western blot analysis; format: functional, cell-based
[29] = test system: U-937; assay: Induction of apoptosis in human U937 cells assessed as procaspase-3 activation at 1 uM after 6 hrs by Western blot analysis; format: functional, cell-based
[30] = test system: HL-60; assay: Induction of apoptosis in human HL60 cells assessed as procaspase-3 activation at 1 uM after 6 hrs by Western blot analysis; format: functional, cell-based
[31] = test system: HL-60; assay: Induction of apoptosis in human HL60 cells assessed as hypodiploid DNA content at 3 uM after 6 hrs by propidium iodide staining-based flow cytometry relative to control; format: functional
[32] = test system: MOLT-3; assay: Induction of apoptosis in human MOLT3 cells assessed as chromatin hydrolysis at 1 uM after 6 hrs by agarose gel electrophoresis; format: functional, cell-based
[33] = test system: U-937; assay: Induction of apoptosis in human U937 cells assessed as chromatin hydrolysis at 1 uM after 6 hrs by agarose gel electrophoresis; format: functional, cell-based
[34] = test system: HL-60; assay: Induction of apoptosis in human HL60 cells assessed as chromatin hydrolysis at 1 uM after 6 hrs by agarose gel electrophoresis; format: functional, cell-based
[35] = test system: U-937; assay: Induction of apoptosis in human U937 cells assessed as appearance of apoptotic bodies at 1 uM after 6 hrs by Hoechst 33258 staining based fluorescence microscopy; format: functional, cell-based
[36] = test system: U-937; assay: Induction of apoptosis in human U937 cells assessed as chromatin condensation at 1 uM after 6 hrs by Hoechst 33258 staining based fluorescence microscopy; format: functional, cell-based
[37] = test system: HL-60; assay: Induction of apoptosis in human HL60 cells assessed as appearance of apoptotic bodies at 1 uM after 6 hrs by Hoechst 33258 staining based fluorescence microscopy; format: functional, cell-based
[38] = test system: HL-60; assay: Induction of apoptosis in human HL60 cells assessed as chromatin condensation at 1 uM after 6 hrs by Hoechst 33258 staining based fluorescence microscopy; format: functional, cell-based
[39] = test system: MOLT-3; assay: Cytotoxicity against human MOLT3 cells after 4 hrs by MTT assay; format: functional, cell-based; details: for IC50: MOLT-3, 4 h
[40] = test system: U-937; assay: Cytotoxicity against human U937 cells after 4 hrs by MTT assay; format: functional, cell-based; details: for IC50: U-937, 4 h
[41] = test system: HL-60; assay: Cytotoxicity against human HL60 cells after 4 hrs by MTT assay; format: functional, cell-based; details: for IC50: HL-60, 4 h
[42] = test system: HeLa; assay: Cytotoxicity against human HeLa cells after 4 days by Coulter counter analysis; format: functional, cell-based; details: 96 h
[43] = test system: CCRF-CEM; assay: Cytotoxicity against human CEM cells after 3 days by Coulter counter analysis; format: functional, cell-based; details: 72 h
[44] = test system: FM3A; assay: Cytotoxicity against mouse FM3A cells after 2 days by Coulter counter analysis; format: functional, cell-based; details: 48 h
[45] = test system: L1210; assay: Cytotoxicity against mouse L1210 cells after 2 days by Coulter counter analysis; format: functional, cell-based; details: L1210, 48 h
[46] = test system: U-937; assay: Induction of apoptosis in human U937 cells assessed as procaspase-7 activation at 1 uM after 6 hrs by Western blot analysis; format: functional, cell-based
[47] = test system: HL-60; assay: Induction of apoptosis in human HL60 cells assessed as procaspase-7 activation at 1 uM after 6 hrs by Western blot analysis; format: functional, cell-based
[48] = test system: MOLT-3; assay: Induction of apoptosis in human MOLT3 cells assessed as procaspase-6 activation at 1 uM after 6 hrs by Western blot analysis; format: functional, cell-based
[49] = test system: U-937; assay: Induction of apoptosis in human U937 cells assessed as hypodiploid DNA content at 3 uM after 6 hrs by propidium iodide staining-based flow cytometry relative to control; format: functional

C=C(Br)C(=O)Nc1cccc(/C=C2\SC(=O)N(Cc3ccc(C(F)(F)F)cc3)C2=O)c1
fold change (FC) [1]: >2
fold change (FC) [2]: >10
fold change (FC) [3]: >5
Activity [4]: Active
Activity [5]: Active
Activity [6]: Active
Activity [7]: Active
Activity [8]: Active
Activity [9]: Active
Activity [10]: Active
Activity [11]: Active
Activity [12]: Active
Activity [13]: Active
Activity [14]: Active
Activity [15]: Active
Activity [16]: Active
Activity [17]: Active
Activity [18]: Active
Activity [19]: Active
Activity [20]: Active
Activity [21]: Active
Activity [22]: Active
Activity [23]: Active
Activity [24]: Active
Activity [25]: Active
Activity [26]: Active
Activity [27]: Active
Activity [28]: Active
Activity [29]: Active
Activity [30]: Active
fold change (FC) [31]: 23
Activity [32]: inactive
Activity [33]: Active
Activity [34]: Active
Activity [35]: Active
Activity [36]: Active
Activity [37]: Active
Activity [38]: Active
Activity [39]: Dose-dependent effect
IC50 [39]: 710 nM
Activity [40]: Dose-dependent effect
IC50 [40]: 500 nM
Activity [41]: Dose-dependent effect
IC50 [41]: 450 nM
IC50 [42]: 820 nM
IC50 [43]: 920 nM
IC50 [44]: 870 nM
IC50 [45]: 720 nM
Activity [46]: Active
Activity [47]: Active
Activity [48]: Active
fold change (FC) [49]: 16

C=C(Br)C(=O)Nc1cccc(/C=C2\SC(=O)N(Cc3ccccc3)C2=O)c1
fold change (FC) [1]: >2
fold change (FC) [2]: >10
fold change (FC) [3]: >5
Activity [4]: Active
Activity [5]: Active
Activity [6]: Active
Activity [7]: Active
Activity [8]: Active
Activity [9]: Active
Activity [10]: Active
Activity [11]: Active
Activity [12]: Active
Activity [13]: Active
Activity [14]: Active
Activity [15]: Active
Activity [16]: Active
Activity [17]: Active
Activity [18]: Active
Activity [19]: Active
Activity [20]: Active
Activity [21]: Active
Activity [22]: Active
Activity [23]: Active
Activity [24]: Active
Activity [25]: Active
Activity [26]: Active
Activity [27]: Active
Activity [28]: Active
Activity [29]: Active
Activity [30]: Active
fold change (FC) [31]: 12
Activity [32]: inactive
Activity [33]: Active
Activity [34]: Active
Activity [35]: Active
Activity [36]: Active
Activity [37]: Active
Activity [38]: Active
Activity [39]: Dose-dependent effect
IC50 [39]: 600 nM
Activity [40]: Dose-dependent effect
IC50 [40]: 620 nM
Activity [41]: Dose-dependent effect
IC50 [41]: 690 nM
IC50 [42]: 1400 nM
IC50 [43]: 510 nM
IC50 [44]: 810 nM
IC50 [45]: 380 nM
Activity [46]: Active
Activity [47]: Active
Activity [48]: Active
fold change (FC) [49]: 6

C=C(Br)C(=O)Nc1cccc(/C=C2\SC(=O)N(Cc3ccc(F)cc3)C2=O)c1
fold change (FC) [1]: >2
fold change (FC) [2]: >10
fold change (FC) [3]: >5
Activity [4]: Active
Activity [5]: Active
Activity [6]: Active
Activity [7]: Active
Activity [8]: Active
Activity [9]: Active
Activity [10]: Active
Activity [11]: Active
Activity [12]: Active
Activity [13]: Active
Activity [14]: Active
Activity [15]: Active
Activity [16]: Active
Activity [17]: Active
Activity [18]: Active
Activity [19]: Active
Activity [20]: Active
Activity [21]: Active
Activity [22]: Active
Activity [23]: Active
Activity [24]: Active
Activity [25]: Active
Activity [26]: Active
Activity [27]: Active
Activity [28]: Active
Activity [29]: Active
Activity [30]: Active
fold change (FC) [31]: 12
Activity [32]: inactive
Activity [33]: Active
Activity [34]: Active
Activity [35]: Active
Activity [36]: Active
Activity [37]: Active
Activity [38]: Active
Activity [39]: Dose-dependent effect
IC50 [39]: 640 nM
Activity [40]: Dose-dependent effect
IC50 [40]: 530 nM
Activity [41]: Dose-dependent effect
IC50 [41]: 770 nM
IC50 [42]: 800 nM
IC50 [43]: 680 nM
IC50 [44]: 920 nM
IC50 [45]: 680 nM
Activity [46]: Active
Activity [47]: Active
Activity [48]: Active
fold change (FC) [49]: 4
